This is an account of results in ChEMBL document CHEMBL5523684, “Development of a tetrahydroindazolone-based HDAC6 inhibitor with in-vivo anti-arthritic activity” (Bioorg Med Chem, 2024).

The nature of series [1]: Half life in mouse at 10 mg/kg, iv. In kind it is ADME, organism-based. The note with it: in vivo.
A short description of series [2]: Cmax in mouse at 50 mg/kg, po. Format: ADME, organism-based. The note with it: in vivo.
Series [3] can be described thus: Bioavailability in mouse at 10 mg/kg, iv. Format: ADME, organism-based. The note with it: in vivo.
The next series concerns Rattus norvegicus. As to the kind of experiment: Antiarthritic activity against adjuvant-induced arthritis Lewis rat model at 50 mg/kg, po measured after 8 days. The conditions noted are these: time 8.0 day. Format: functional, organism-based.
For the next series, the system named is Mus musculus. The experiment in a line: Antiarthritic activity against collagen-induced arthritis DBA1J mouse model assessed as improvement in arthritis symptoms at 15 mg/kg, sc measured after 21 days. The conditions noted are these: time 21 day. Format: functional.
Another series concerns the target Histone deacetylase 5 (Homo sapiens, UniProt Q9UQL6). As to the kind of experiment: Inhibition of human recombinant HDAC5 using Boc-Lys(tri-fluoroacetyl)-AMC as substrate by fluorescence based analysis.
Series [4] concerns the target T1, Protein deacetylase HDAC6 (Homo sapiens, UniProt Q9UBN7).
T1 sequence (Q9UBN7 whole entry): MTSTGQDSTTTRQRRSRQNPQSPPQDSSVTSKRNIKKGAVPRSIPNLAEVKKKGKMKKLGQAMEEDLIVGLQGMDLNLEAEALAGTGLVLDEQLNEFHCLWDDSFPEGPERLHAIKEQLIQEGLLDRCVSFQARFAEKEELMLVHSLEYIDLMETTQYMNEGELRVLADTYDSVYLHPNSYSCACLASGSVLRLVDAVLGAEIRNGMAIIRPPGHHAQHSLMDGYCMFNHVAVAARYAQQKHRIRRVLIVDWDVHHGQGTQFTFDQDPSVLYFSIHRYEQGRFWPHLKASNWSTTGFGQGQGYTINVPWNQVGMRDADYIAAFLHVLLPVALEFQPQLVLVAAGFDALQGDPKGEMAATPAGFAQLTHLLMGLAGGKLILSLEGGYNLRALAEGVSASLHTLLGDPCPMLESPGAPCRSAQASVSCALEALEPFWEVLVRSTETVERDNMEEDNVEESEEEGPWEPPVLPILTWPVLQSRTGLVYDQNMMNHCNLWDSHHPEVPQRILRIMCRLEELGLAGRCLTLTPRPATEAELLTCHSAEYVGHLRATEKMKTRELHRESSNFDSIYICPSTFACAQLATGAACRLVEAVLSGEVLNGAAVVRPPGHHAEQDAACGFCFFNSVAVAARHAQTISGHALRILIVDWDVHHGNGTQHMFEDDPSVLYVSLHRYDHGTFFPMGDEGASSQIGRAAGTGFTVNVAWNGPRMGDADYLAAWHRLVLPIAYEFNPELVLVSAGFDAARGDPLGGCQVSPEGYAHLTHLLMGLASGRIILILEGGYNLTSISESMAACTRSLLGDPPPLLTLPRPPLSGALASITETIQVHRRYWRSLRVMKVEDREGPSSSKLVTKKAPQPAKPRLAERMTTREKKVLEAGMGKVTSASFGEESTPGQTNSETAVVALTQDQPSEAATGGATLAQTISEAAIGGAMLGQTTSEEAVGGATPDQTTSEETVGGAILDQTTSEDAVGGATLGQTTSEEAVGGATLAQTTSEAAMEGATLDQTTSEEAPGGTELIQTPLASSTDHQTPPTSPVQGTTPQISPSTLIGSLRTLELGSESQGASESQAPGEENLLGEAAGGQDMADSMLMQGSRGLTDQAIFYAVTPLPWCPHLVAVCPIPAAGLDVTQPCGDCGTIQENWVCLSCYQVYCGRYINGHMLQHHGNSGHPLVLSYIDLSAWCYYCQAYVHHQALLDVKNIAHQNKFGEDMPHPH
The experiment in a line: Inhibition of human recombinant HDAC6 using fluorescent peptide p53 (379 to 382 residues) RHKK(Ac) as substrate by fluorescence based analysis.

Activity calls are given as the source filed them. Some results are limits rather than exact numbers.

Histone deacetylase 5, sequence (Q9UQL6 whole entry): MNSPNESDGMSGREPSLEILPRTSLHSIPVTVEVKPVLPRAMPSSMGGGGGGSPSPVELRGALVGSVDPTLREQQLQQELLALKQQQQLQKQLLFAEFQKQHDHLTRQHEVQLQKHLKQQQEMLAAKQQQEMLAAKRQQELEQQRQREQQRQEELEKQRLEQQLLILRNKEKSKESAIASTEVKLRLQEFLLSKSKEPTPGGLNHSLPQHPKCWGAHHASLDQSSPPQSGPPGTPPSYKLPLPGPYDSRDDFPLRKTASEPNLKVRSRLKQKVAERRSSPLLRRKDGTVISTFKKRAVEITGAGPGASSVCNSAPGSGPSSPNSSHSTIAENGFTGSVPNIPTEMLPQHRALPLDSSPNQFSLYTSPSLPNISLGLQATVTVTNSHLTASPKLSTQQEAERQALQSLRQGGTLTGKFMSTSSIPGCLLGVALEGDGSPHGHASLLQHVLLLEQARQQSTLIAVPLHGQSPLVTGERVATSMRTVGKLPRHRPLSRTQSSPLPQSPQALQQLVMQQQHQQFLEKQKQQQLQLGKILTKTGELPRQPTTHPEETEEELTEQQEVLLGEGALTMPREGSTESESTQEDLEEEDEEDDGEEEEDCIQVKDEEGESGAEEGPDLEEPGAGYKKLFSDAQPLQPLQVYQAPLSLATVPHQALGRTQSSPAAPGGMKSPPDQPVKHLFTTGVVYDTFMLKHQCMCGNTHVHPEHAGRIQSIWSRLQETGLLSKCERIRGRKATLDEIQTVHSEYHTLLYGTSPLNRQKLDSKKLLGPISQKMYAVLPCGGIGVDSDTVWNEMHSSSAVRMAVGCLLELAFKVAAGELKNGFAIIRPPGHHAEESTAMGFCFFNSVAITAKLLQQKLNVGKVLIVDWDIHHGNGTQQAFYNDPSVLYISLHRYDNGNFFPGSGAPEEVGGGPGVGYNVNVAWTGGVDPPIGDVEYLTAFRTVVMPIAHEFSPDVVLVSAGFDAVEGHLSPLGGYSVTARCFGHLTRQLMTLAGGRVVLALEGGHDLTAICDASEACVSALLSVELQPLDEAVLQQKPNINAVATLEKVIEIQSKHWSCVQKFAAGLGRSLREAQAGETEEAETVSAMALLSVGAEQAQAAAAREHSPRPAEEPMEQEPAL

With `CC1(C)CC(=O)c2c(C(F)(F)F)nn(Cc3ccc(C(=O)NO)cc3)c2C1`, the half-life in series [1] is 17.4 min. This molecule also came in with a peak concentration (Cmax) in series [2] of 2080 ng/mL. Further, the bioavailability in series [3] worked out at 19%. Also, the outcome in the series on Rattus norvegicus was Active. The Activity in the series with Mus musculus was 53%.
For the molecule `O=C(NO)c1ccc(Cn2c3c(c4ccccc42)C(=O)CCC3)cc1`, the IC50 on Histone deacetylase 5 was over 20 µM; in series [4], 0.035 µM.

The term half-life denotes the time needed for the level to fall by half in the phase considered. Read a high half-life as slow decline. As a reminder, the Cmax is the peak of the concentration-time curve. A word on the bioavailability: it is dose-corrected exposure relative to a reference, in per cent. High values mean good availability, low ones poor availability. For orientation: IC50 means the concentration needed to halve the response being measured.
